Source: ChEMBL document CHEMBL3813607, “New antitumour agents with α,β-unsaturated δ-lactone scaffold: Synthesis and antiproliferative activity of (-)-cleistenolide and analogues” (Bioorg Med Chem Lett, 2016)

Tests used:
K562 = test: Cytotoxicity against human K562 cells assessed as cell growth inhibition after 72 hrs by MTT assay; format: functional, cell-based; settings: K562, 72 h
[1] = Cytotoxicity against human HL60 cells assessed as cell growth inhibition after 72 hrs by MTT assay; format: functional, cell-based; settings: HL-60, 72 h
Jurkat = test: Cytotoxicity against human Jurkat cells assessed as cell growth inhibition after 72 hrs by MTT assay; format: functional, cell-based
Raji = test: Cytotoxicity against human Raji cells assessed as cell growth inhibition after 72 hrs by MTT assay; format: functional, cell-based
MCF7 = test: Cytotoxicity against human MCF7 cells assessed as cell growth inhibition after 72 hrs by MTT assay; format: functional, cell-based; settings: MCF7, 72 h
MDA-MB-231 [2] = test: Cytotoxicity against human MDA-MB-231 cells assessed as cell growth inhibition after 72 hrs by MTT assay; format: functional, cell-based; settings: MDA-MB-231, 72 h
HeLa = test: Cytotoxicity against human HeLa cells assessed as cell growth inhibition after 72 hrs by MTT assay; format: functional, cell-based
A549 [3] = test: Cytotoxicity against human A549 cells assessed as cell growth inhibition after 72 hrs by MTT assay; format: functional, cell-based; settings: A549, 72 h
MRC5 = test: Cytotoxicity against human MRC5 cells assessed as cell growth inhibition after 72 hrs by MTT assay; format: functional, cell-based; settings: MRC5, 72 h
A549 [4] = test: Potency index, ratio of Doxorubicin IC50 to ratio of compound IC50 for human A549 cells; format: functional
MDA-MB-231 [5] = test: Potency index, ratio of Doxorubicin IC50 to ratio of compound IC50 for human MDA-MB-231 cells; format: functional

Row | Structure (SMILES) | IC50 (K562) | IC50 [1] | IC50 (Jurkat) | IC50 (Raji) | IC50 (MCF7) | IC50 (MDA-MB-231 [2]) | IC50 (HeLa) | IC50 (A549 [3]) | IC50 (MRC5) | Ratio IC50 (A549 [4]) | Ratio IC50 (MDA-MB-231 [5])
1 | CC(=O)O[C@@H]1C=CC(=O)O[C@@H]1[C@@H](COC(=O)/C=C/c1ccccc1)OC(C)=O | 0.28 µM | 24.6 µM | 0.25 µM | 11.2 µM | 16 µM | 1.46 µM | 0.21 µM | 2.02 µM | > 100 µM | 2.5 | –
2 | CC(=O)O[C@@H]1C=CC(=O)O[C@@H]1[C@@H](COC(=O)c1ccccc1)OC(C)=O | 7.65 µM | 1.21 µM | 14.2 µM | 36.9 µM | 26.1 µM | 2.25 µM | 7.32 µM | 16.3 µM | > 100 µM | – | –
3 | CC(=O)O[C@@H]1C=CC(=O)O[C@@H]1[C@@H](COC(=O)c1c(Cl)cc(Cl)cc1Cl)OC(C)=O | 1.02 µM | 36.2 µM | 6.25 µM | 11.2 µM | 0.62 µM | 0.02 µM | 14 µM | 4.23 µM | 45.7 µM | – | 4.5
4 | COc1cccc(C(=O)OC[C@@H](OC(C)=O)[C@H]2OC(=O)C=C[C@H]2OC(C)=O)c1 | 2.69 µM | 0.89 µM | 8.31 µM | 25.6 µM | 4.71 µM | 7.46 µM | 1.95 µM | 11 µM | 91.3 µM | – | –
5 | COc1cccc2c1C(=O)c1c(O)c3c(c(O)c1C2=O)C[C@@](O)(C(=O)CO)C[C@@H]3O[C@H]1C[C@H](N)[C@H](O)[C@H](C)O1 [DOXORUBICIN] | – | 0.92 µM | – | – | – | – | – | – | – | – | –
